In experiment [1] the test system is MEF-IGF1R cells. Description: Proliferation/viability of MEF-IGF1R (Thymidine [14C] incorporation). Format: cell-based. Particulars: rhIGF1 100 ng/mL, incubation 72 hours, read-out: Test C IC50. As for the experimental part: C) Measurement of the Proliferation/Viability of MEF-IGF1R
Cell culture: the MEF-IGF1R cells (stable clone of cells transfected with the receptor hIGF-1R) are cultured at 37° C. under 5% CO2 in EMEM medium containing 10% FCS.
Test procedure: the cells are seeded at 5000 cells per well in 96-well Cytostar plates (Amersham) with 0.2 mL of EMEM culture medium at 37° C. for 18 hours. The cells are then washed twice with EMEM medium and left to culture without serum for 24 hours. The compounds are then added at various concentrations in the presence of rhIGF1 (100 ng/mL) and 0.1 μCi of Thymidine [^14C] (specific activity ˜50 mCi/mmol) to give 0.2 mL of volume per well. After incubation for 72 hours in the presence of the compound, at 37° C. under 5% CO2, the incorporation of Thymidine [^14C] is measured by counting the radioactivity on a Microbeta trilux counter (Perkin-Elmer). The IC50 is determined from 10 increasing concentrations of the compound.
(§1) (i) The tests are performed in duplicate and the mean of the two tests is calculated.
(§2) (ii) The value of the signal of the maximum response is calculated from the positive control: cells stimulated with IGF1 without compound.
(§3) (iii) Value of the signal of the minimum response is calculated from the negative control: cells not stimulated with IGF1 without compound.
(§4) (iv) By using these values as maximum (100%) and minimum (0%), respectively, the data were normalized so as to give a percentage of the maximum response.
(§5) (v) A curve of dose response is plotted and the IC50 (the concentration of which the compound induces a 50% decrease in the signal) of the compound is calculated by non-linear regression analysis.

Experiment [2] deals with T1, human cytoplasmic domain of IGF-1R (Homo sapiens, UniProt P08069).
T1 construct: The human cytoplasmic domain of IGF-1R was cloned by fusion with glutathione S-transferase (GST); made in house; host or cells: SF21 insect cells (baculovirus, pFastBac-GST)
T1 sequence (P08069 960-1367 limits assumed): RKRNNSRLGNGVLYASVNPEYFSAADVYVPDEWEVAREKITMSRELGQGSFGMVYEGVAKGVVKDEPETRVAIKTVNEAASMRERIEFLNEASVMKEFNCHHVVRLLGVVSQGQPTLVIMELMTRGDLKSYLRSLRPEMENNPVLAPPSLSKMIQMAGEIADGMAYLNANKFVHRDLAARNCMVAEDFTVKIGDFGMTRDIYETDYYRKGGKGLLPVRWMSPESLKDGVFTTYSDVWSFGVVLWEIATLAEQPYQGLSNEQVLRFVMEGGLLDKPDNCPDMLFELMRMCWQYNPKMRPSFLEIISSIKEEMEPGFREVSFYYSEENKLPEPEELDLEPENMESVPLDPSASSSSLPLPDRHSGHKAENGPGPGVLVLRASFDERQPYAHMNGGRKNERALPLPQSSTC
The experiment can be described thus: Kinase IGF-1R test: inhibition of autophosphorylation of the enzyme (HTRF). Format: biochemical. The note with it: ATP 120 μM. As for the experimental part:
A) Experimental Protocol for the Kinase IGF-1R Test:
The inhibitory activity of the compounds on IGF1R is determined by measuring the inhibition of autophosphorylation of the enzyme using a time-resolved fluorescence test (HTRF). The human cytoplasmic domain of IGF-1R was cloned by fusion with glutathione S-transferase (GST) in the baculovirus expression vector pFastBac-GST. The protein is expressed in the SF21 cells and purified to about 80% homogeneity. For the enzymatic test, the test compound at 10 mM dissolved in DMSO is diluted in ⅓ steps in a 50 mM Hepes, pH 7.5, 5 mM MnCl2, 50 mM NaCl, 3% Glycerol, 0.025% Tween 20 buffer. To measure the inhibition, the successive dilutions of the compound are preincubated for 30 minutes and 90 minutes in the presence of 5 nM of enzyme, the final DMSO concentration not exceeding 1%. The enzymatic reaction is initiated to have a final ATP concentration of 120 μM, and is stopped after 5 minutes by addition of 100 mM Hepes, pH 7.0 buffer containing 0.4 M of potassium fluoride, 133 mM EDTA, 0.1% BSA, the XL665-labelled antibody anti-GST and the anti-phosphotyrosine antibody conjugated to europium cryptate Eu—K (Cis-Bio Int.). The characteristics of the two fluorophores, XL-665 and Eu—K, are available in G. Mathis et al., Anticancer Research, 1997, 17, pages 3011-3014. The energy transfer between the excited europium cryptate to the acceptor XL665 is proportional to the degree of autophosphorylation of IGF-1R. The specific long-lasting signal of XL-665 is measured in a GENios Pro TECAN plate counter. The inhibition of autophosphorylation of IGF-1R at time 30 minutes and 90 minutes with the test compounds of the invention is calculated relative to a 1% in DMSO control, whose activity is measured in the absence of compound. The curve representing the percentage of inhibition as a function of the log of the concentration is established to determine the concentration corresponding to 50% inhibition (IC50),
For orientation: In TR-FRET formats the signal depends on donor and acceptor labels being close together.

For experiment [3], the target named is IGF-1R in MCF7 cells (Homo sapiens, UniProt P08069). The experiment can be described thus: Autophosphorylation of IGF-1R in MCF7 cells after stimulation with IGF-1 (ELISA). Format: cell-based. Further details: endogenous in cells; host or cells: MCF-7 cells. The note with it: MCF-7 cells, compound added one hour before stimulation with IGF1; read-out: Test B IC50. The procedure:
B) Measurement of the Autophosphorylation of IGF-1R in MCF7 Cells after Stimulation with IGF-1
Cell Culturing and Execution of the Test:
The autophosphorylation of IGF1R in the IGF1-induced cells is evaluated by means of an ELISA technique (Enzyme Linked ImmunoSorbent Assay). The MCF-7 are seeded at 60 000 cells per well in 6-well plates and incubated at 37° C., 5% CO2 in medium containing 10% serum. After one night in 10% serum, the cells are deprived of serum for 24 hours. The compounds are added to the medium one hour before stimulation with IGF1. After 10 minutes of stimulation with IGF1, the cells are lysed with a buffer (Hepes 50 mM pH 7.6, Triton X100 1%, orthovanadate 2 mM, protease inhibitor cocktail). The cell lysates are incubated on a 96-well plate precoated with an anti-IGF1R antibody, followed by incubation with an anti-phosphotyrosine antibody coupled to the enzyme peroxidase. The level of peroxidase activity (measured by OD with a luminescent substrate) reflects the phosphorylation status of the receptor.
as §1, §2, §3, §4, §5

[4] abbreviates: preincubation 30 minutes with 5 nM enzyme, read-out: Test A 30′ IC50.
Where [5] appears, read: preincubation 90 minutes with 5 nM enzyme, read-out: Test A 90′ IC50.

Like-named read-outs stand apart in the source and are kept apart here.

Usually IC50 stands for the midpoint of a concentration-inhibition curve.

Sequence of IGF-1R in MCF7 cells (P08069 31-1367): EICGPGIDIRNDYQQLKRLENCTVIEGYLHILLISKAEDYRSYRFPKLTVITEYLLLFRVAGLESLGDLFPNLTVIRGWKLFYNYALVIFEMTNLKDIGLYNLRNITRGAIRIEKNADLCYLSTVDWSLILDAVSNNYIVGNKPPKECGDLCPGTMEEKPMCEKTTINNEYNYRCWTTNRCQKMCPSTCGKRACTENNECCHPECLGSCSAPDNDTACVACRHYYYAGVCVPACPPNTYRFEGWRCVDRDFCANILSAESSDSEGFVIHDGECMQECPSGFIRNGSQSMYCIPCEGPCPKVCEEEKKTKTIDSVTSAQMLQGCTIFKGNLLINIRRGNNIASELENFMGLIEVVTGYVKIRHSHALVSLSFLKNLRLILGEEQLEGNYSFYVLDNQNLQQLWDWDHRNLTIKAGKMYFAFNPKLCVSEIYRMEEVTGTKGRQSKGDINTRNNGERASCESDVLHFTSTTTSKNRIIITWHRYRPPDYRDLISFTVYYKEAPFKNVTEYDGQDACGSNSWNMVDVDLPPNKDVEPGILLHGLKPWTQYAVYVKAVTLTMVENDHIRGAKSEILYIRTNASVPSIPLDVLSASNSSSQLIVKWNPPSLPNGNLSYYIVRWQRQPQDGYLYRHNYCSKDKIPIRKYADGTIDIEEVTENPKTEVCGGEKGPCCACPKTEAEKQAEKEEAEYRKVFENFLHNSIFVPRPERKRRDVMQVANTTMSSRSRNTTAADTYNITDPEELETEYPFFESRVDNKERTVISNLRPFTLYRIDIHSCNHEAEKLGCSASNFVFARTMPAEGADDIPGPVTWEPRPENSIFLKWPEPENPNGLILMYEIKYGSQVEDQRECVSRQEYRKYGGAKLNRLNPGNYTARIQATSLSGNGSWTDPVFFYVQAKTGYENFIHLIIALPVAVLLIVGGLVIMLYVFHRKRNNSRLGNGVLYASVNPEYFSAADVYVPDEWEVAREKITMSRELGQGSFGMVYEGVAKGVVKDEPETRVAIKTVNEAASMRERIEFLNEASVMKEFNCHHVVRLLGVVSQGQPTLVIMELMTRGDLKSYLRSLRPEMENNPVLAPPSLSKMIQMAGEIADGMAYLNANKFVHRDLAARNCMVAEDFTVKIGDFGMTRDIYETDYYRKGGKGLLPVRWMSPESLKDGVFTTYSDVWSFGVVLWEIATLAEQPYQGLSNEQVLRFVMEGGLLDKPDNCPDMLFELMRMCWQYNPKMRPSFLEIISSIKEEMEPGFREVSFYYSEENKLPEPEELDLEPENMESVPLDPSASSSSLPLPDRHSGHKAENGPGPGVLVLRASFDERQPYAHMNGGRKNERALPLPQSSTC

As to “1-{4-[(5,5-dimethyl-2,4-dioxo-3-{4-[(trifluoro-methyl)thio]phenyl}imidazolidin-1-yl)methyl]pyridin-2-yl}-3-(2-morpholin-4-ylethyl)urea [Example 33]”, the figures for the IC50 in experiment [1], in experiment [2] (setting [4]) and in experiment [2] (setting [5]) were more than 100 nM, 10 to 100 nM and 10 to 100 nM, respectively.
Regarding “1-{4-[(5,5-dimethyl-2,4-dioxo-3-{4-[(trifluoro-methyl)thio]phenyl}imidazolidin-1-yl)methyl]pyridin-2-yl}-3-[2-(4-methylpiperazin-1-yl)ethyl]urea [Example 32]”, the values for the IC50 in experiment [1], in experiment [2] (setting [4]) and in experiment [2] (setting [5]) were more than 100 nM, 10 to 100 nM and 10 to 100 nM, respectively.
With `CC1(C)C(=O)N(c2ccc(SC(F)(F)F)cc2)C(=O)N1Cc1ccnc(NC(=O)NC2CC(CO)C2)c1` (mixture of isomers) [Example 40B Stage a), 1-{4-[(5,5-dimethyl-2,4-dioxo-3-{4-[(trifluoro-methyl)thio]phenyl}imidazolidin-1-yl)methyl]pyridin-2-yl}-3-[3-(hydroxymethyl)cyclobutyl]urea], the IC50 was 10 to 100 nM in experiment [2] (setting [4]) and less than 10 nM in experiment [2] (setting [5]).
For `CC1(C)C(=O)N(c2ccc(SC(F)(F)F)cc2)C(=O)N1Cc1ccnc(Nc2cc(Cl)ccc2Cl)c1` [Example 1, 1-({2-[(2,5-dichlorophenyl)amino]pyridin-4-yl}-methyl)-5,5-dimethyl-3-{4-[(trifluoromethyl)thio]phenyl}imidazolidine-2,4-dione], the IC50 in experiment [1] is 10 to 100 nM; in experiment [3] it was more than 100 nM; in experiment [2] (setting [4]) it was more than 100 nM; in experiment [2] (setting [5]), more than 100 nM.
In the case of `CC1(C)C(=O)N(c2ccc(SC(F)(F)F)cc2)C(=O)N1Cc1ccnc(NC(=O)N2CCCCC2)c1` [Example 2, N-{4-[(5,5-dimethyl-2,4-dioxo-3-{4-[(trifluoro-methyl)thio]phenyl}imidazolidin-1-yl)methyl]pyridin-2-yl}piperidine-1-carboxamide], the IC50 in experiment [1] was 10 to 100 nM; in experiment [3] it was less than 10 nM; in experiment [2] (setting [4]), 10 to 100 nM; in experiment [2] (setting [5]), 10 to 100 nM.
For `CC1(C)C(=O)N(c2ccc(SC(F)(F)F)cc2)C(=O)N1Cc1ccnc(NC(=O)c2ccc(Cl)c(Cl)c2)c1` [Example 3, 3,4-dichloro-N-{4-[(5,5-dimethyl-2,4-dioxo-3-{4-[(trifluoromethyl)thio]phenyl}imidazolidin-1-yl)methyl]pyridin-2-yl}benzamide], the IC50 in experiment [1] was 10 to 100 nM; in experiment [3], more than 100 nM; in experiment [2] (setting [4]), more than 100 nM; in experiment [2] (setting [5]), more than 100 nM.
`CNC(=O)Nc1cc(CN2C(=O)N(c3ccc(S(=O)(=O)C(F)(F)F)cc3)C(=O)C2(C)C)ccn1` [Example 4, 1-{4-[(5,5-dimethyl-2,4-dioxo-3-{4-[(trifluoro-methyl)sulfonyl]phenyl}imidazolidin-1-yl)methyl]pyridin-2-yl}-3-methylurea]: the IC50 was 10 to 100 nM in experiment [1], less than 10 nM in experiment [3], more than 100 nM in experiment [2] (setting [4]) and 10 to 100 nM in experiment [2] (setting [5]).
With `CN(C)C(=O)Nc1nccc(CN2C(=O)N(c3ccc(SC(F)(F)F)cc3)C(=O)C2(C)C)n1` [Example 10, 3-{4-[(5,5-dimethyl-2,4-dioxo-3-{4-[(trifluoro-methyl)thio]phenyl}imidazolidin-1-yl)methyl]pyrimidin-2-yl}-1,1-dimethylurea], the IC50 in experiment [1], in experiment [2] (setting [4]) and in experiment [2] (setting [5]) was more than 100 nM throughout.
Take `CN(C)C(=O)Nc1nccc(CN2C(=O)N(c3ccc(S(=O)(=O)C(F)(F)F)cc3)C(=O)C2(C)C)n1` [Example 12, 3-{4-[(5,5-dimethyl-2,4-dioxo-3-{4-[(trifluoro-methyl)sulfonyl]phenyl}imidazolidin-1-yl)methyl]pyrimidin-2-yl}-1,1-dimethylurea]: the IC50 in experiment [1], in experiment [2] (setting [4]) and in experiment [2] (setting [5]) was more than 100 nM each time.
For the compound `CC1(C)C(=O)N(c2ccc(SC(F)(F)F)cc2)C(=O)N1Cc1ccnc(Nc2cncc(F)c2)c1` [Example 17, 1-({2-[(5-fluoropyridin-3-yl)amino]pyridin-4-yl}-methyl)-5,5-dimethyl-3-{4-[(trifluoromethyl)thio]phenyl}imidazolidine-2,4-dione], the IC50 in experiment [1] is more than 100 nM; in experiment [2] (setting [4]), more than 100 nM; in experiment [2] (setting [5]), 10 to 100 nM.
For the compound `CC1(C)C(=O)N(c2ccc(SC(F)(F)F)cc2)C(=O)N1Cc1ccnc(NC(=O)NC2CCCCC2)c1` [Example 25, 1-cyclohexyl-3-{4-[(5,5-dimethyl-2,4-dioxo-3-{4-[(trifluoromethyl)thio]phenyl}imidazolidin-1-yl)methyl]pyridin-2-yl}urea], the IC50 in experiment [1] was more than 100 nM; in experiment [2] (setting [4]), more than 100 nM; in experiment [2] (setting [5]), 10 to 100 nM.
Turning to `CC1(C)C(=O)N(c2ccc(SC(F)(F)F)cc2)C(=O)N1Cc1ccnc(NC(=O)NCCN2CCCCC2)c1` [Example 31, 1-{4-[(5,5-dimethyl-2,4-dioxo-3-{4-[(trifluoro-methyl)thio]phenyl}imidazolidin-1-yl)methyl]pyridin-2-yl}-3-(2-piperidin-1-ylethyl)urea], the results for the IC50 in experiment [1], in experiment [2] (setting [4]) and in experiment [2] (setting [5]) were more than 100 nM, more than 100 nM and 10 to 100 nM, respectively.
`CCCCNC(=O)Nc1cc(CN2C(=O)N(c3ccc(SC(F)(F)F)cc3)C(=O)C2(C)C)ccn1` [Example 37, 1-butyl-3-{4-[(5,5-dimethyl-2,4-dioxo-3-{4-[(tri-fluoromethyl)thio]phenyl}imidazolidin-1-yl)methyl]pyridin-2-yl}urea]: the IC50 in experiment [1] is 10 to 100 nM; in experiment [2] (setting [4]), more than 100 nM; in experiment [2] (setting [5]), 10 to 100 nM.
`CN(C)CCCNC(=O)Nc1cc(CN2C(=O)N(c3ccc(SC(F)(F)F)cc3)C(=O)C2(C)C)ccn1` [Example 38, 1-[3-(dimethylamino)propyl]-3-{4-[(5,5-dimethyl-2,4-dioxo-3-{4-[(trifluoromethyl)thio]phenyl}imidazolidin-1-yl)methyl]pyridin-2-yl}urea]: the results for the IC50 in experiment [1], in experiment [2] (setting [4]) and in experiment [2] (setting [5]) were more than 100 nM, 10 to 100 nM and 10 to 100 nM, respectively.
Regarding `CN(C)CCCCNC(=O)Nc1cc(CN2C(=O)N(c3ccc(SC(F)(F)F)cc3)C(=O)C2(C)C)ccn1` [Example 40, 1-[4-(dimethylamino)butyl]-3-{4-[(5,5-dimethyl-2,4-dioxo-3-{4-[(trifluoromethyl)thio]phenyl}imidazolidin-1-yl)-methyl]pyridin-2-yl}urea], the IC50 is more than 100 nM in experiment [1], 10 to 100 nM in experiment [2] (setting [4]) and less than 10 nM in experiment [2] (setting [5]).

The values are drawn from patent publication US20090082329A1 (AVENTIS PHARMA S.A., priority 2006, published 2009).
